From patent publication US20240352013A1, “BICYCLIC FUSED PYRAZOLE DERIVATIVES FOR THE TREATMENT OF RESPIRATORY INFECTIONS INCLUDING RSV” (GEORGIA STATE UNIVERSITY RESEARCH FOUNDATION, INC., priority 2021, published 2024)
pEC50: −log10 of the molar value. Read-outs that look alike come from different tables or passages of the source.

Legend:
[1] = test system: recRSV-fireSMASh; assay: microbe, parasite or virus in culture; assay type: cell-based; settings: human respiratory syncytial virus, HAE, read-out: “F1” HAE C50 (first)
[2] = test system: “M4” HAE; settings: “M4” donor primary HAE cells
[3] = test system: recRSV-fireSMASh L1502Q; assay: microbe, parasite or virus in culture; assay type: cell-based; settings: human respiratory syncytial virus; recombinant recRSV-fireSMASh, HEp-2, RSV L L1502Q
[4] = Cytotoxicity assay (PrestoBlue) in HEp-2 cells; assay type: cell-based, human; settings: human; HEp-2 cells, 48-hour incubation; max concentration tested
Protocol: (§1) To determine the effect of compound on cell metabolism, HEp-2 cells were seeded at 50% confluence in 96-well plates and were incubated with 3-fold serial dilution of compound from 5 or 50 μM as described, including positive and negative controls for normalization. After 48-hour incubation at 37° C., cells were incubated with PrestoBlue (ThermoFisher Scientific) for 1 hour at 37° C. and fluorescence measured with a H1 synergy plate reader (Biotek).
(§2) After 48-hour incubation at 37° C., cells were incubated with PrestoBlue (ThermoFisher Scientific, cat #A-13262) for 1 h at 37° C. and fluorescence measured with a H1 synergy plate reader (BioTek).

[5] = test system: HEp-2 cells; assay: Cytotoxicity assay (PrestoBlue) in HEp-2 cells; assay type: cell-based, human; settings: for cytotoxicity: FIG. 24; for CC50: HEp-2 cells, 48-hour incubation, max concentration tested
Protocol: as §1, §2

[6] = test system: recRSV-mKate harboring L1502Q; assay type: cell-based; settings: recRSV with LL1502Q relative to L WT
[7] = test system: recRSV-mKate; assay: microbe, parasite or virus in culture; assay type: cell-based; settings: 3D-HAE, progeny virus titers six days after infection, read-out: half-maximal effective concentration (EC50)
[8] = test system: recRSV-fireSMASh H1632Q; assay: microbe, parasite or virus in culture; assay type: cell-based; settings: human respiratory syncytial virus; recombinant recRSV-fireSMASh, HEp-2, RSV L H1632Q
[9] = 100 μM, previous studies; cited from earlier work
[10] = test system: “F1” HAE; settings: “F1” donor primary HAE cells
[11] = test system: recRSV-fireSMASh Y1631H; assay: microbe, parasite or virus in culture; assay type: cell-based; settings: human respiratory syncytial virus; recombinant recRSV-fireSMASh, HEp-2, RSV L Y1631H
[12] = test system: recRSV-fireSMASh; assay: microbe, parasite or virus in culture; assay type: cell-based; settings: human respiratory syncytial virus, HAE, read-out: “M4” HAE C50 (first)
[13] = test system: recRSV-A2line19F-[mKate]; assay: In vivo efficacy in RSV-infected mice (lung viral titer); settings: for in vivo lung titer reduction in RSV-infected mice: oral gavage twice daily from 10 h post-infection, lungs 4.5 days after infection; for Lung viral load reduction (log10 TCID50/ml) relative to vehicle-treated: 50 mg/kg bid, therapeutic treatment 10 hours after infection, 4.5 days post-infection
Protocol: For efficacy studies, mice were randomly divided into groups (n=5) and infected intranasally with 5×10^5 TCID50 (25 μl per nare) of recRSV-A2line19F-[mKate] in PBS while under anesthesia with ketamine/xylazine. Treatment (compound or vehicle) was administrated at 10 h post-infection via oral gavage in a 200 μl suspension of 1% methylcellulose and administrated twice daily. Temperature and food consumption were monitored daily, body weight was determined twice daily. All animals were euthanized at 4.5 days after infection and lungs were harvested. To determine lung viral titers, lungs were weighted and homogenized with a bead beater in 300 μl PBS in 3 bursts of 20 seconds by 5-minute rest on ice after each cycle. Samples were clarified for 5 minutes at 4° C. and 20,000×g, supernatant aliquoted and stored at −80° C. before being titrated by median tissue culture infectious dose (TCID50) normalized per gram of lung tissue and per ml of lysate. RSV viral titers were determined using standard 50% tissue infective dose (TCID50) assay in HEp-2 cells and 96 well plates, with a Spearman and Karber based method using fluorescence for detection.
Mice were divided randomly into groups of 5, and infected intranasally with 500,000 TCID50 (25 μl/nare) of recRSV-mKate in Phosphate-Buffered Saline. Mice were anesthetized with ketamine/xylazine. Treatments were administrated via oral gavage in a 200 μl suspension of 1% Methylcellulose in water. Temperature and body weight were determined on a daily and twice-daily basis, respectively. Efficacy studies were terminated at peak viral replication at 4.5 days post-infection, mice were euthanized and lungs harvested and weighted. Lung viral titers were determined after tissue homogenization with a bead beater with 300 μl PBS (3 bursts of 30 seconds at 4° C., separated by 30-second rest at 4° C.). Homogenates were clarified (5 minutes at 4° C. and 20,000×g), aliquoted and stored at −80° C. until titration. Viral titers were determined by median tissue culture infectious dose (TCID50) titration, adjusted to weight (g) of lung tissue.

[14] = test system: 3D-HAE
[15] = test system: recRSV-mKate; assay: Lung histopathology of RSV-infected mice; settings: 50 mg/kg initiated 12 hours after infection
Protocol: Mice were divided randomly into groups of 5, and infected intranasally with 500,000 TCID50 (25 μl/nare) of recRSV-mKate in Phosphate-Buffered Saline. Mice were anesthetized with ketamine/xylazine. Treatments were administrated via oral gavage in a 200 μl suspension of 1% Methylcellulose in water. Temperature and body weight were determined on a daily and twice-daily basis, respectively. Efficacy studies were terminated at peak viral replication at 4.5 days post-infection, mice were euthanized and lungs harvested and weighted.
For histopathology, mice were subjected to cervical dislocation 4.5 days after infection and lungs perfused with 10% NBF prior to extraction. Lungs were stored in 10% NBF for 24 hours, followed by incubation in 70% EtOH for two days and embedding into wax blocks, using a 21-hour alcohol-xylene-wax embedding sequence. Blocks were sectioned at ˜4 μm thickness, sections mounted onto microscopy slides, and stained with hematoxylin and eosin (H&E). Slides were examined by a board-certified veterinary pathologist, who was blinded to the treatment groups. Lesions were scored according to the following scale. […]

[16] = target: measles virus polymerase (Measles virus, UniProt P12576); settings: found previously (45); cited from earlier work
[17] = orally 50 mg/kg b.i.d., starting 12 hours after infection, compared to vehicle-treated

Chain of measles virus polymerase (P03422 whole entry): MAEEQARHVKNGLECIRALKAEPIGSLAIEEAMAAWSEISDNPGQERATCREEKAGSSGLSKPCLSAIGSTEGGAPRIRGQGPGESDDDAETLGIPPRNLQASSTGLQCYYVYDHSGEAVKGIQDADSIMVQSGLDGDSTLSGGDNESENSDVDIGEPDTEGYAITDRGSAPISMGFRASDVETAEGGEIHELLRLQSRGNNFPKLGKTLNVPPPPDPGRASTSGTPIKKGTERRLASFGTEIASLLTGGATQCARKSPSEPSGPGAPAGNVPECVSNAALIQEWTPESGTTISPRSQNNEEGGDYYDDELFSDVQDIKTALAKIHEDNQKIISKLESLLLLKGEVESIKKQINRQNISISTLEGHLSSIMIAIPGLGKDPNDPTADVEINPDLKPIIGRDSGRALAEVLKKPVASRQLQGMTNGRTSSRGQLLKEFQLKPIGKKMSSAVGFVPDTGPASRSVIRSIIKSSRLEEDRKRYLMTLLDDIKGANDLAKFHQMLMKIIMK
Chain of measles virus polymerase (P12576 whole entry): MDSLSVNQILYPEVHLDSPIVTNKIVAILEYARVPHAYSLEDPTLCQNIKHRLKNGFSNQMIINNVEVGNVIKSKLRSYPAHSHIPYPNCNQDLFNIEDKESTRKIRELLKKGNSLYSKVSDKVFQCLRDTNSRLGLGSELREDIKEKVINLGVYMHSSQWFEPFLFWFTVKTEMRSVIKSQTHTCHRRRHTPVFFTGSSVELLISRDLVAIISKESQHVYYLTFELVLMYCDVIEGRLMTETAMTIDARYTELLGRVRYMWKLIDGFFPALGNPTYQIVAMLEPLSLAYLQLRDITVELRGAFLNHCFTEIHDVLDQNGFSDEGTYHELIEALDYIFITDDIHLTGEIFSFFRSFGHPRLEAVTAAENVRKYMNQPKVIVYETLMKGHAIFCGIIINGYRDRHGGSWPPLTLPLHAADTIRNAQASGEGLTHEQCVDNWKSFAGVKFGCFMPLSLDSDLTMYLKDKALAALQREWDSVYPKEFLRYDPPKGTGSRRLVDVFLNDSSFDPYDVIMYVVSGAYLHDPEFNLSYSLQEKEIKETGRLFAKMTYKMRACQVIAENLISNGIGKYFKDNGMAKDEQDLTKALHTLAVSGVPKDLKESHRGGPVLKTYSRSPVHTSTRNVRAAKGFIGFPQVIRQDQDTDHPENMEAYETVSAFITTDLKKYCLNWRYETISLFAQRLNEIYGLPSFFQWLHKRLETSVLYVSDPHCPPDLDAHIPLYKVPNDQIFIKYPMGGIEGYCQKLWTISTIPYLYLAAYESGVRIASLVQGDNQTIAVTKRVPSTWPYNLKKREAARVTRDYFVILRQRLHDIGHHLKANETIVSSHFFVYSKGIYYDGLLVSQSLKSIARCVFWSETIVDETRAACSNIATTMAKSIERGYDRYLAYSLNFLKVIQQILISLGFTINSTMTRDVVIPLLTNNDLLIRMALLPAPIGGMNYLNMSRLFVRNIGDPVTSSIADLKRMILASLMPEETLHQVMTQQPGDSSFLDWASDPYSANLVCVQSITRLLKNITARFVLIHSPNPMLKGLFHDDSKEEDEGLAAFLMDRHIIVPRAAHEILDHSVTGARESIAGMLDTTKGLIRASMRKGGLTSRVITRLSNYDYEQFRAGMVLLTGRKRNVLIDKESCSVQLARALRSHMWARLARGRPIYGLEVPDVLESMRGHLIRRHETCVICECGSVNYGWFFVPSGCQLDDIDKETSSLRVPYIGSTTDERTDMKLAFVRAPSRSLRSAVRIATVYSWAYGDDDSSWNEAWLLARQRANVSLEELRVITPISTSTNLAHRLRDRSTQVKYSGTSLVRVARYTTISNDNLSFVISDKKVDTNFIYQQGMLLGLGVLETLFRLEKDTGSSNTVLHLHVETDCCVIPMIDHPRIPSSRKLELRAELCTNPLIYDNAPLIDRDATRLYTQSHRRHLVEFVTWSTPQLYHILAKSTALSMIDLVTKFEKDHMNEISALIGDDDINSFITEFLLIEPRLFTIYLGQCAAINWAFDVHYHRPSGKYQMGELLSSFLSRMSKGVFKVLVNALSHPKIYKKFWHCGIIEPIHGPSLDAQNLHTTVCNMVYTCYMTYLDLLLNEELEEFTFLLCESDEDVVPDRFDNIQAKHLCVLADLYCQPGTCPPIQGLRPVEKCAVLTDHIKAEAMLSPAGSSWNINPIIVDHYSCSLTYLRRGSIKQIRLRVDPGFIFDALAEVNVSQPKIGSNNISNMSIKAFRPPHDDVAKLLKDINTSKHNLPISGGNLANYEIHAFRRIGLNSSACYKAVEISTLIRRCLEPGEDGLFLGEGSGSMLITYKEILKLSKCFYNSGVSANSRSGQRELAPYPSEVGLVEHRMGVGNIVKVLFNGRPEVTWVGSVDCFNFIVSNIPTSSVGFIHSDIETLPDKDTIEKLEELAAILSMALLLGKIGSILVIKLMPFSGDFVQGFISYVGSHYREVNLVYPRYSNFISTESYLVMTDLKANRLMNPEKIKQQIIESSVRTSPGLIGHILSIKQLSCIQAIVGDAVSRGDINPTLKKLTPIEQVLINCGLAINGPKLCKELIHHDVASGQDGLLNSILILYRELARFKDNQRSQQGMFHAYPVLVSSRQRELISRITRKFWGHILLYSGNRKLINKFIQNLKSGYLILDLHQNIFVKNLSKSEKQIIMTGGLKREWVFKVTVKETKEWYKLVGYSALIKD

Structure (SMILES) | pEC50 [1] | “M4” HAE C50 (second) [2] [µM] | HEp-2 C50 (second) [5] [µM] | “F1” HAE C50 (second) [10] [µM] | pEC50 [12] | in vivo lung titer reduction in RSV-infected mice ([13]; 50 mg/kg) | reduction in lung viral load [13, 17] | CC50 [5] [nM] | Lung viral load reduction (log10 TCID50/ml) relative to vehicle-treated [13] [log10 TCID50/ml] | further results
COc1ccc(Cn2c3cc(=O)n(Cc4cccc(Cl)n4)c(C)c3c(=O)n2-c2ccccn2)cc1 [AVG-233] | 6.44 | 45 | 50 | 45 | 6.96 | 50 mg/kg: −0.44 log 10 |  |  |  | pEC50 [3]: < 4.00; CC50 at 48 h [4]: > 45000 nM; cytotoxicity [5]: very low cytotoxicity; increase in EC90 [6]: > 2000 fold; pEC50 ([7]; human respiratory syncytial virus, 144 h): 7.15; pEC50 [8]: 5.35; cytotoxicity [9]: well-tolerated without any signs of cytotoxicity; pEC50 [11]: 5.66; effect on tissue organization and tight junction integrity ([14]; 200 μM, continued multi-day exposure, ZO-1 immunostaining and TEER): no negative effect on tissue organization and tight junction integrity; effect on epithelium integrity ([14]; basolateral 5 μM, RSV-infected, 3 d.p.i.): without detectable negative effect
COc1c(F)c(F)c(Cn2c3cc(=O)n(Cc4cccc(C(F)(F)F)n4)c(C)c3c(=O)n2-c2ncc(F)cc2F)c(F)c1F [AVG-388] | 6.89 | 10 | 10 | 10 | 6.82 | 50 mg/kg: −1.3 log 10 | 1.3 (±0.25) log 10 TCID50/ml |  |  | pEC50 [3]: < 4.00; disease progression to viral pneumonia (histopathology) [15]: prevented disease progression to viral pneumonia; vasculitis and perivascular cuffing (histopathology) [15]: Only one animal of the AVG-388 group showed mild vasculitis and perivascular cuffing; CC50 at 48 h [4]: > 45000 nM; cytotoxicity [5]: very low cytotoxicity; pEC50 [8]: 5.32; pEC50 [11]: 5.57; in vivo lung titer reduction in RSV-infected mice ([13]; 150 mg/kg): 150 mg/kg: −1.9 log 10; adverse effects (bodyweight and temperature) ([13]; orally 150 mg/kg b.i.d.): without any signs of adverse effects; reduction in lung viral load ([13]; orally 150 mg/kg b.i.d.): 1.9 (±0.23) log 10 TCID50/ml
COc1c(F)c(F)c(Cn2c3cc(=O)n(Cc4cccc(Cl)n4)c(C)c3c(=O)n2-c2ccccn2)c(F)c1F [AVG-389] | 6.80 | 45 | 5 | 45 | 7.15 |  |  |  |  | 
COc1c(F)c(F)c(Cn2c3cc(=O)n(Cc4cccc(Cl)n4)c(C)c3c(=O)n2-c2ncc(F)cc2F)c(F)c1F [AVG-390] | 6.41 | 45 | 45 | 45 | 6.60 | 50 mg/kg: −0.50 log 10 | slightly lower antiviral effect | > 45000 | −0.5 | 
COc1ccc(Cn2c3cc(=O)n(Cc4cccc(Cl)n4)c(C)c3c(=O)n2-c2ncc(F)cc2F)cc1 [AVG-391] | 6.46 | 45 | 45 | 45 | 6.52 |  |  |  |  | 
COc1ccc(Cn2c3cc(=O)n(Cc4cccc(C(F)(F)F)n4)c(C)c3c(=O)n2-c2ncc(F)cc2F)cc1 [AVG-392] | 6.04 | 45 | 45 | 45 | 6.28 |  |  |  |  | 
COc1c(F)c(F)c(Cn2c3cc(=O)n(Cc4cccc(C(F)(F)F)n4)c(C)c3c(=O)n2-c2ccccn2)c(F)c1F [AVG-435] |  |  | 5 |  |  | 50 mg/kg: −0.44 log 10 | did not observe as much benefit | > 5000 | −0.44 | 
COc1ccc(Cn2c3cc(=O)n(Cc4cccc(C(F)(F)F)n4)c(C)c3c(=O)n2-c2ccccn2)cc1 [AVG-436] |  |  | 5 |  |  | 50 mg/kg: −0.89 log 10 | 0.89 (±0.14) log 10 TCID50/ml | > 5000 | −0.89 | 
Cc1c2c(=O)n(-c3ccccn3)n(Cc3c(Cl)cccc3Cl)c2cc(=O)n1Cc1cccc(C(F)(F)F)n1 [AVG-445] |  |  | 5 |  |  | 50 mg/kg: −1.1 log 10 | 1.1 (±0.16) log 10 TCID50/ml | > 5000 | −1.1 | in vivo lung titer reduction in RSV-infected mice ([13]; 100 mg/kg): 100 mg/kg: −1.9 log 10
Cc1c2c(=O)n(-c3ccccn3)n(Cc3c(Cl)cccc3Cl)c2cc(=O)n1Cc1cccc(C(F)(F)F)c1 [AVG-446] |  |  |  |  |  | 50 mg/kg: −0.61 log 10 |  |  |  | CC50 at 48 h [4]: > 5000 nM; in vivo lung titer reduction in RSV-infected mice ([13]; 100 mg/kg): 100 mg/kg: −1.2 log 10
Cn1nc(C(F)(F)F)cc1C(=O)Nc1ccc(S(=O)(=O)N2CCCC[C@H]2CCN2CCOCC2)cc1 [ERDRP-0519] |  |  |  |  |  |  |  |  |  | phosphodiester bond formation [16]: completely blocks all phosphodiesterbond formation
O=c1nc(NO)ccn1[C@@H]1O[C@H](CO)[C@@H](O)[C@H]1O [NHC, reference compound] |  |  |  |  |  |  |  |  |  | pEC50 [7]: 7.30
